Measurements: patent publication EP1592418B1, “USE OF ENDOCANNABINOID-LIKE COMPOUNDS FOR TREATING CNS DEGENERATIVE DISORDERS” (Research & Innovation S.p.A., priority 2003, dated 2004)

Columns and labels:
[1] = Solubility (physico-chemical properties); assay type: physicochemical; details: for solubility: organic solvent or mixture, read-out: solubility in organic solvents
Jurkat cells = test: Evaluation of cellular viability by MTT assay; assay type: cell-based, human; details: 10 µM, incubated 18-24 hr, MTT, absorbance 570 nm
Protocol: Jurkat, an acute T-lymphoblastic leukemia cell line generated from a person, have been used. Cell culture have been cultured in RPMI-1640 culture medium containing 10% FBS.
Jurkat cells were cultured at 1x10^5 cells/ml in RPMI 1640 medium supplemented with 10% fetal bovine serum (FBS), 2mM L-glutamine and 100 U/ml penicillin + 100 ug/ml streptomycin.
To detect drug effect in vitro, MTT [3-(4,5-dimethylthiazol-2-yl)-2,5-diphenyltetrazolium bromide] assay was used as described (Carmichael J et al., 1987 Cancer Res. 47, 936-42). Briefly, cells were seeded in triplicate on 96-well culture plates at a density of 20000 cells/well. The drugs were added in order to have the final concentration of 10 µM (1 µl of a solution of 10mM in DMSO) and incubated for 18-24 hr. Then MTT (0.5 mg/ml) was added to each well, and plates were incubated for an additional 1 to 3 hr in the dark at 37 °C. After this time the MTT solution was aspirated from the wells and 0.1 ml of DMSO was added. The plates were allowed to stand for 10 min, and then the absorbance was determined in a SpectraCount (Packard) microplate reader at 570 nm. The drug effect was determined by comparing absorbances of treated and untreated cells.

[2] = test system: reverse passive Arthus reaction, mouse ear pinna; test: Reverse passive Arthus reaction (RPA) in the mouse ear pinna: oedema and Evans blue extravasation; assay type: in vivo; details: mouse ear; for Extravasation / Riduction % (extravasation): 10 mg/Kg i.p.; for Extravasation: Evans blue density at 620 nm in ear homogenate supernatant, Vehicle 0,90±0,06, Naïve 0,04±0,01; for Oedema (mg): 10 mg/Kg intraperitoneally 1 hour before induction, weight increase of 8 mm punch vs contralateral ear, three hours after antigen, Vehicle 49,8 ± 1,2, Naive 23,7 ± 1,2; for Riduction % (extravasation): reduction of extravasation versus Vehicle (0)
Source text: The Arthus model (RPA) is a model of immune-complex mediated tissue damage that involves the passive subcutaneous introduction of an antibody and the systemic administration of the corresponding antigen. This inflammatory model has been used to test the in vivo activity of the synthesised molecules.
The reverse passive Arthus reaction is induced, in the mouse ear pinna, by the subcutaneous injection of an excess of IgG anti human albumin followed by i.v. adiministration of the corresponding Ag (i.e. human albumin) together with Evans blue, 2 mg for each mouse, for the evaluation of extravasation.
(§1) The tested molecules were solubilised in DMSO, cremophor and PBS in a ratio of 1:1:18 and administered usually by intraperitonelly at the dosage of 10 mg/Kg 1 hour before the induction of anafilactic reaction. The animals were sacrificed 3 hours after the molecule administration.
The oedema and the extravasations are evaluated tree hours after the i.v. administration of the antigen. The oedema is evaluated as the increase of weight of lesioned ear area dissected by a 8 mm biopsy punch as compared to the contralateral unlesioned auricular tissues. The extravasation is measured determining the Evans blue density at 620 nm in the supernatants deriving from ear homogenates following centrifugation at 10000 x g for 20 min.

[3] = Rectal temperature (central cannabinoid effect, hypothermia); assay type: in vivo, mouse; details: for ΔT (°C) rectal temperature: treated animals, Vehicle 0,1 ± 0,2
Protocol: as §1
TABLE 4. Rectal temperature in animals that have been treated with cannabinoids, endocannabinoids or molecules that are object of the present invention. Note a profound hypothermia induced by synthetic cannabinoid such as Win 55,212 or the endocannabinoid Anandamide while no alteration was induced by molecules that are object of the present invention.

SMILES | solubility ([1]; in DMSO and in chloroform) | solubility in water [1] | Growth inhibition (% of control) (Jurkat cells) | Extravasation [2] | Oedema (mg) [2] | Riduction % (extravasation) [2] | ΔT (°C) rectal temperature [3] | solubility in organic solvents ([1]; in DMSO and in chloroform) | rectal temperature (in words) ([3]; mouse, in vivo)
CCCCCCCCCCCCCC(=O)NC(C)C [Example 1, N-isopropyl-myristoyl amide] | > 10000 µg/mL | scarcely soluble | 55.0 % of control | 0,57±0,03 | 39,9 ± 2,1 mg | 36.7% | 0,2 ± 0,3 °C |  | 
CCCCCCCCCCCCCCCC(=O)NC(C)C [Example 2, N-isopropyl-palmitoyl amide] | > 10000 µg/mL | scarcely soluble | 55.6 % of control | 0,37±0,07 | 31,8 ± 1,8 mg | 58.9% | 0,1 ± 0,1 °C |  | 
CCCCCCCCCCCCCCCCCC(=O)NC(C)C [Example 4, N-Isopropyl-stearoyl amide] | > 10000 µg/mL | scarcely soluble | 45.3 % of control | 0,20±0,03 | 26,5 ± 0,9 mg | 77.8% | 0,2 ± 0,1 °C |  | 
CCCCCCCCCCCCCCCCNC(C)=O [Example 12, N-hexadecyl-acetyl-amide] | > 10000 µg/mL | scarcely soluble | 64.8 % of control | 0,72±0,03 | 41,5 ± 1,9 mg | 20.0% | 0,2 ± 0,2 °C |  | 
CCCCCCCCCCCCCCCC(=O)NC1CCCCC1 [Example 15, N-cyclohexyl-palmitoyl amide] |  | scarcely soluble | 63.2 % of control | 0,58±0,16 | 47,5 ± 4,2 mg |  | 0,1 ± 0,1 °C | >10 mg/ml in DMSO and in chloroform | 
CCCCCCCCCCCCCCCC(=O)NCC(C)C [Example 25, N-isobutyl-palmitoyl amide] | > 10000 µg/mL | scarcely soluble |  | 0,72±0,07 | 42,4 ± 2.4 mg | 20.0% | 0,3 ± 0,1 °C |  | 
CCCCCCCCCCCCCCCC(=O)NC1CCC1 [Example 27, N-cyclobutyl-palmitoyl amide] | > 10000 µg/mL | scarcely soluble | 29.2 % of control | 0,39±0,11 | 38,5 ± 0.9 mg | 56.7% | 0,1 ± 0,1 °C |  | 
CCCCCCCCCCCCCCCCCC(=O)NCCCCC [Example 34, N- pentyl-stearoyl amide] | > 10000 µg/mL | scarcely soluble | 34.2 % of control | 0,62±0,08 | 42,5 ± 3.5 mg | 31.2% | 0,1 ± 0,1 °C |  | 
CCCCCCCCCCCCCCCC(=O)NCCC(C)C [Example 35, N-isopentyl-palmitoyl amide] | > 10000 µg/mL | scarcely soluble | 29.2 % of control | 0,58±0,09 | 38,3 ± 1.8 mg | 35.6% | 0,3 ± 0,2 °C |  | 
CCCCCCCCCCCCCCCCCC(=O)NCCC(C)C [Example 36, N-isopentyl-stearoyl amide] | > 10000 µg/mL | scarcely soluble | 30.2 % of control | 0,52±0,05 | 33,7 ± 3.2 mg | 42.7% | 0,1 ± 0,1 °C |  | 
CCCCCCCCCCCCCCCCCC(=O)NC1CCCC1 [Example 38, N-cyclopentyl-stearoyl amide] | > 10000 µg/mL | scarcely soluble | 31.8 % of control | 0,51±0,14 | 32,3 ± 3.3 mg | 43.4% | 0,2 ± 0,2 °C |  | 
CCCCCCCCCCCCCCCC(N)=O [Palmitoylamide] |  |  | 33.9 % of control | 0,35±0,05 | 33,2 ± 0.7 mg | 61.2% | 0,2 ± 0,1 °C |  | 
CCCCCCCCCCCCCCCCCC(N)=O [Starylamide, stearylamide] |  |  | 35.2 % of control | 0,31±0,08 | 30,8 ± 0.5 mg | 65.6% | 0,3 ± 0,2 °C |  | 
Cc1c(C(=O)c2cccc3ccccc23)c2cccc3c2n1[C@H](CN1CCOCC1)CO3 [WIN 55.212, reference compound] |  |  | 79.2 % of control | 0,51 ±0,02 | 33,7 ± 4,6 mg | 43.5% | -5,1 ± 1,3 °C |  | drastic reduction
